Data: patent US9884832B2 (priority 2011, dated 2018)
Read-outs that look alike come from different tables or passages of the source.

Legend:
[1] = target: AM2 V27A (valine→alanine mutation at residue 27 in the M2 protein) (Influenza A virus, UniProt P0DOF5, V27A); type: cell-based, influenza virus A/Udorn/72
[2] = target: AM2 S31N (serine→asparagine mutation at residue 31 in the M2 protein) (Influenza A virus, UniProt P0DOF5, S31N); type: cell-based, influenza virus A/Udorn/72

| Structure (SMILES) | V27A OOcyte Inhibition at 100 uM (%) ([1]; pH 5.5) | S31N OOcyte Inhibition at 100 uM (%) ([2]; pH 5.5) | V27A OOcyte Inhibition at 100 uM (%) [1] | S31N OOcyte Inhibition at 100 uM (%) [2] |
| --- | --- | --- | --- | --- |
| Fc1ccc(CNC23CC4CC(CC(C4)C2)C3)cc1 [Example 27, Adamantan-1-yl-(4-fluoro-benzyl)-amine] | B (key: (A)=31-95%; (B)=0-30%) | B (key: (A)=31-95%; (B)=0-30%) |  |  |
| OC1CCN(C2C3CC4CC(C3)CC2C4)CC1 (stereo not drawn) [Example 104, 1-Adamantan-2-yl-piperidin-4-ol] | B (key: (A)=31-95%; (B)=0-30%) | B (key: (A)=31-95%; (B)=0-30%) |  |  |
| c1cc(CNC23CC4CC(CC(C4)C2)C3)cs1 [Example 68a, Adamantan-1-yl-thiophen-3-ylmethyl-amine] |  |  | A (key: (A)=31-95%; (B)=0-30%) | B (key: (A)=31-95%; (B)=0-30%) |
| c1cc2cn[nH]c2cc1CNC12CC3CC(CC(C3)C1)C2 [Example 95, Adamantan-1-yl-(1H-indazol-6-ylmethyl)-amine] | A (key: (A)=31-95%; (B)=0-30%) | B (key: (A)=31-95%; (B)=0-30%) |  |  |
| Oc1ccc(CNC23CC4CC(CC(C4)C2)C3)cc1Cl [Example 47, 4-(Adamantan-1-ylaminomethyl)-2-chloro-phenol] | A (key: (A)=31-95%; (B)=0-30%) | B (key: (A)=31-95%; (B)=0-30%) |  |  |
| c1cc(-c2ccc(CNC34CC5CC(CC(C5)C3)C4)o2)[nH]n1 [Example 162a, N-((5-(1H-pyrazol-5-yl)furan-2-yl)methyl)adamantan-1-amine] |  |  | B (key: (A)=31-95%; (B)=0-30%) | B (key: (A)=31-95%; (B)=0-30%) |
| OCc1ccc(CNC23CC4CC(CC(C4)C2)C3)o1 [Example 77, [5-(Adamantan-1-ylaminomethyl)-furan-2-yl]methanol] | B (key: (A)=31-95%; (B)=0-30%) | B (key: (A)=31-95%; (B)=0-30%) |  |  |
| O=[N+]([O-])c1cc(CNC23CC4CC(CC(C4)C2)C3)ccc1O [Example 52, 4-(Adamantan-1-ylaminomethyl)-2-nitro-phenol] | A (key: (A)=31-95%; (B)=0-30%) | B (key: (A)=31-95%; (B)=0-30%) |  |  |
| CN(CCC#N)c1ccc(CNC23CC4CC(CC(C4)C2)C3)cc1 [Example 38, 3-((4-((Adamantan-1-ylamino)methyl)phenyl)(methyl)amino)propanenitrile] | B (key: (A)=31-95%; (B)=0-30%) | A (key: (A)=31-95%; (B)=0-30%) |  |  |
| OCc1cc(Br)ccc1CNC12CC3CC(CC(C3)C1)C2 [Example 52a, [2-(Adamantan-1-ylaminomethyl)-5-bromo-phenyl]methanol] |  |  | B (key: (A)=31-95%; (B)=0-30%) | B (key: (A)=31-95%; (B)=0-30%) |
| Oc1c(CNC23CC4CC(CC(C4)C2)C3)ccc2ccccc12 [Example 53a, 2-(Adamantan-1-ylaminomethyl)-naphthalen-1-ol] |  |  | B (key: (A)=31-95%; (B)=0-30%) | A (key: (A)=31-95%; (B)=0-30%) |
| CCOc1ccc(CNC23CC4CC(CC(C4)C2)C3)cc1 [Example 1a, Adamantan-1-yl-(4-ethoxy-benzyl)-amine] |  |  | B (key: (A)=31-95%; (B)=0-30%) | A (key: (A)=31-95%; (B)=0-30%) |
| c1cc(CNC23CC4CC(CC(C4)C2)C3)cc(-c2ccco2)c1 [Example 30a, N-(3-(Furan-2-yl)benzyl)adamantan-1-amine] |  |  | A (key: (A)=31-95%; (B)=0-30%) | B (key: (A)=31-95%; (B)=0-30%) |
| O=c1ccc2cc(CNC34CC5CC(CC(C5)C3)C4)ccc2o1 [Example 42a, 6-((adamantan-1-ylamino)methyl)-2H-chromen-2-one] |  |  | B (key: (A)=31-95%; (B)=0-30%) | B (key: (A)=31-95%; (B)=0-30%) |
| FC(F)(F)Oc1ccc(CNC23CC4CC(CC(C4)C2)C3)cc1 [Example 4a, Adamantan-1-yl-(4-trifluoromethoxy-benzyl)-amine] |  |  | B (key: (A)=31-95%; (B)=0-30%) | B (key: (A)=31-95%; (B)=0-30%) |
